Experimental data: patent US6355799B1, “Substituted benzene compounds, process for their preparation, and herbicidal and defoliant compositions containing them” (ISK Americas Incorporated, priority 1997, dated 2002)

Tests used:
Assay type in all cases: in vivo
[1] = system: upland rice (Oryza sp., var. Tebonnet, RICE); test: Post-emerge test, crop safety; settings: phytotoxicity rating 0-100 (0 no damage, 100 complete death), 14 days after application
Outline: (§1)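 Sandy loam pots; pre-emerge: sown 1 d pre-spray, surface-watered after, then bottom-watered. Post-emerge: sown 8–21 d before, 2–3 leaf stage, + 0.25% v/v NIS, bottom-watered. Acetone, 187 l/ha track spray, 15–1000 g ai/ha. 0–100 injury score, day 14.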

[2] = system: field corn (Zea mays L., var. Dekalb 535, CORN); test: Post-emerge test, crop safety; settings: phytotoxicity rating 0-100 (0 no damage, 100 complete death), 14 days after application
Outline: as §1

[3] = system: redroot pigweed (Amaranthus retroflexus, AMARE); test: Pre-emerge test, greenhouse herbicide activity screening; settings: pre-emerge, rated 14 days after application, 0 = no damage, 100 = complete death
Outline: as §1

[4] = system: ivyleaf morningglory (Ipomoea hederacea, IPOHE); test: Post-emerge test, greenhouse herbicide activity screening; settings: phytotoxicity rating 0-100 (0 no damage, 100 complete death), 14 days after application
Outline: (§2)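 Plants grown in 10 cm pots of sandy loam mix received acetone-dissolved compounds through a moving flat-fan nozzle. Doses ranged from 15 to 1000 g ai/ha. Pre-emerge pots were seeded one day earlier, post-emerge pots 8–21 days earlier. Fourteen days on, each pot was graded 0–100 for damage.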

[5] = system: large crabgrass (Digitaria sanguinalis, DIGSA); test: as above; settings: phytotoxicity rating 0-100 (0 no damage, 100 complete death), 14 days after application
Outline: as §2

[6] = system: johnsongrass (Sorghum halepense, SORHA); test: as above; settings: phytotoxicity rating 0-100 (0 no damage, 100 complete death), 14 days after application
Outline: as §2

[7] = system: sicklepod (Cassia obtusifolia, CASOB); test: as above; settings: phytotoxicity rating 0-100 (0 no damage, 100 complete death), 14 days after application
Outline: as §2

[8] = system: green foxtail (Setaria viridis, SETVI); test: as above; settings: phytotoxicity rating 0-100 (0 no damage, 100 complete death), 14 days after application
Outline: as §2

[9] = system: barnyardgrass (Echinochloa crus-galli, ECHCG); test: as above; settings: phytotoxicity rating 0-100 (0 no damage, 100 complete death), 14 days after application
Outline: as §2

[10] = system: lambsquarters (Chenopodium album, CHEAL); test: as above; settings: phytotoxicity rating 0-100 (0 no damage, 100 complete death), 14 days after application
Outline: as §2

[11] = system: velvetleaf (Abutilon theophrasti, ABUTH); test: as above; settings: phytotoxicity rating 0-100 (0 no damage, 100 complete death), 14 days after application
Outline: as §2

[12] = system: redroot pigweed (Amaranthus retroflexus, AMARE); test: as above; settings: phytotoxicity rating 0-100 (0 no damage, 100 complete death), 14 days after application
Outline: as §2

[13] = system: ivyleaf morningglory (Ipomoea hederacea, IPOHE); test: Pre-emerge test, greenhouse herbicide activity screening; settings: pre-emerge, rated 14 days after application, 0 = no damage, 100 = complete death
Outline: as §1

[14] = system: large crabgrass (Digitaria sanguinalis, DIGSA); test: as above; settings: pre-emerge, rated 14 days after application, 0 = no damage, 100 = complete death
Outline: as §1

[15] = system: johnsongrass (Sorghum halepense, SORHA); test: as above; settings: pre-emerge, rated 14 days after application, 0 = no damage, 100 = complete death
Outline: as §1

[16] = system: sicklepod (Cassia obtusifolia, CASOB); test: as above; settings: pre-emerge, rated 14 days after application, 0 = no damage, 100 = complete death
Outline: as §1

[17] = system: green foxtail (Setaria viridis, SETVI); test: as above; settings: pre-emerge, rated 14 days after application, 0 = no damage, 100 = complete death
Outline: as §1

[18] = system: barnyardgrass (Echinochloa crus-galli, ECHCG); test: as above; settings: pre-emerge, rated 14 days after application, 0 = no damage, 100 = complete death
Outline: as §1

[19] = system: common ragweed (Ambrosia artemisizfolia L., AMBEL); test: as above; settings: pre-emerge, rated 14 days after application, 0 = no damage, 100 = complete death
Outline: as §1

[20] = system: lambsquarters (Chenopodium album, CHEAL); test: as above; settings: pre-emerge, rated 14 days after application, 0 = no damage, 100 = complete death
Outline: as §1

[21] = system: velvetleaf (Abutilon theophrasti, ABUTH); test: as above; settings: pre-emerge, rated 14 days after application, 0 = no damage, 100 = complete death
Outline: as §1

[22] = system: upland rice (Oryza sp., var. Tebonnet, RICE); test: Pre-emerge test, crop safety; settings: pre-emerge, rated 14 days after application, 0 = no damage, 100 = complete death
Outline: (§3)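 Herbicidal damage is scored 0 (none) to 100 (complete plant death) two weeks after a simulated field spray. Rates span 15–1000 g ai/ha, delivered in acetone at 187 l/ha. For post-emergence treatments, plants have 2–3 leaves and the spray carries 0.25% v/v non-ionic surfactant.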

[23] = system: field corn (Zea mays L., var. Dekalb 535, CORN); test: Pre-emerge test, crop safety; settings: pre-emerge, rated 14 days after application, 0 = no damage, 100 = complete death
Outline: as §3

CCOC(=O)C(C)Nc1cc(OC(F)F)cc(F)c1-n1c(=O)cc(C(F)(F)F)n(C)c1=O (stereo not shown) [Compound 1-53]
10: Post-emerge Herbicidal Activity RICE (crop damage) ([1]; 63 g ai/ha)
90: Pre-emerge Herbicidal Activity DIGSA (phytotoxicity rating, scale 0-100) ([14]; 250 g ai/ha) | Pre-emerge Herbicidal Activity SORHA (phytotoxicity rating, scale 0-100) ([15]; 250 g ai/ha) | Pre-emerge Herbicidal Activity AMBEL (phytotoxicity rating, scale 0-100) ([19]; 250 g ai/ha) | Pre-emerge crop damage RICE (phytotoxicity rating, scale 0-100) ([22]; 250 g ai/ha)
100: Pre-emerge Herbicidal Activity AMARE (phytotoxicity rating, scale 0-100) ([3]; 63 g ai/ha) | Pre-emerge Herbicidal Activity AMARE (phytotoxicity rating, scale 0-100) ([3]; 250 g ai/ha) | Post-emerge Herbicidal Activity IPOHE ([4]; 250 g ai/ha) | Post-emerge Herbicidal Activity CHEAL ([10]; 250 g ai/ha) | Post-emerge Herbicidal Activity ABUTH ([11]; 63 g ai/ha) | Post-emerge Herbicidal Activity ABUTH ([11]; 250 g ai/ha) | Post-emerge Herbicidal Activity AMARE ([12]; 250 g ai/ha) | Pre-emerge Herbicidal Activity CHEAL (phytotoxicity rating, scale 0-100) ([20]; 63 g ai/ha) | Pre-emerge Herbicidal Activity CHEAL (phytotoxicity rating, scale 0-100) ([20]; 250 g ai/ha) | Pre-emerge Herbicidal Activity ABUTH (phytotoxicity rating, scale 0-100) ([21]; 63 g ai/ha) | Pre-emerge Herbicidal Activity ABUTH (phytotoxicity rating, scale 0-100) ([21]; 250 g ai/ha) | Pre-emerge crop damage CORN (phytotoxicity rating, scale 0-100) ([23]; 250 g ai/ha)
50: Post-emerge Herbicidal Activity DIGSA ([5]; 250 g ai/ha) | Post-emerge Herbicidal Activity ECHCG ([9]; 250 g ai/ha) | Post-emerge Herbicidal Activity CHEAL ([10]; 63 g ai/ha) | Pre-emerge Herbicidal Activity IPOHE (phytotoxicity rating, scale 0-100) ([13]; 63 g ai/ha) | Pre-emerge Herbicidal Activity SORHA (phytotoxicity rating, scale 0-100) ([15]; 63 g ai/ha) | Pre-emerge Herbicidal Activity CASOB (phytotoxicity rating, scale 0-100) ([16]; 250 g ai/ha) | Pre-emerge Herbicidal Activity SETVI (phytotoxicity rating, scale 0-100) ([17]; 63 g ai/ha) | Pre-emerge Herbicidal Activity AMBEL (phytotoxicity rating, scale 0-100) ([19]; 63 g ai/ha) | Pre-emerge crop damage RICE (phytotoxicity rating, scale 0-100) ([22]; 63 g ai/ha)
40: Post-emerge Herbicidal Activity SORHA ([6]; 250 g ai/ha) | Pre-emerge Herbicidal Activity DIGSA (phytotoxicity rating, scale 0-100) ([14]; 63 g ai/ha)
30: Post-emerge Herbicidal Activity CORN (crop damage) ([2]; 250 g ai/ha)
60: Post-emerge Herbicidal Activity RICE (crop damage) ([1]; 250 g ai/ha) | Post-emerge Herbicidal Activity CASOB ([7]; 63 g ai/ha)
80: Post-emerge Herbicidal Activity SETVI ([8]; 250 g ai/ha) | Post-emerge Herbicidal Activity AMARE ([12]; 63 g ai/ha) | Pre-emerge Herbicidal Activity ECHCG (phytotoxicity rating, scale 0-100) ([18]; 250 g ai/ha)
0: Post-emerge Herbicidal Activity CORN (crop damage) ([2]; 63 g ai/ha) | Post-emerge Herbicidal Activity DIGSA ([5]; 63 g ai/ha) | Post-emerge Herbicidal Activity SORHA ([6]; 63 g ai/ha) | Post-emerge Herbicidal Activity SETVI ([8]; 63 g ai/ha) | Post-emerge Herbicidal Activity ECHCG ([9]; 63 g ai/ha) | Pre-emerge Herbicidal Activity CASOB (phytotoxicity rating, scale 0-100) ([16]; 63 g ai/ha) | Pre-emerge Herbicidal Activity ECHCG (phytotoxicity rating, scale 0-100) ([18]; 63 g ai/ha)
95: Post-emerge Herbicidal Activity IPOHE ([4]; 63 g ai/ha) | Post-emerge Herbicidal Activity CASOB ([7]; 250 g ai/ha) | Pre-emerge Herbicidal Activity IPOHE (phytotoxicity rating, scale 0-100) ([13]; 250 g ai/ha) | Pre-emerge Herbicidal Activity SETVI (phytotoxicity rating, scale 0-100) ([17]; 250 g ai/ha) | Pre-emerge crop damage CORN (phytotoxicity rating, scale 0-100) ([23]; 63 g ai/ha)
